From patent EP4803511A1, “SMALL MOLECULE COMPOUND HAVING SULFONIC ACID OR SULFINIC ACID LACTONE STRUCTURE, COMPOSITION AND USE THEREOF” (Hangzhou Phecdamed Co., Ltd., priority 2023, dated 2025) come the findings set out here.

The subject of assay [1] is Mn-sod. Put plainly: Zebrafish oxidative aging model (menadione), Mn-sod gene expression by RT-qPCR. Type of assay: in vivo. The note with it: I-8 at 2.5, 7.5, and 22.2 µg/mL, 22 hrs, 4 µM menadione; compared to the modeling group, statistical significance. As for the experimental part:
Experimental animal: Healthy wild-type AB strain zebrafish at 48 hpf (hours post-fertilization)
Healthy AB strain zebrafish were taken as experimental animal. A zebrafish oxidative aging model was constructed using chemical mutagenesis with 4 µM menadione as the modeling drug. Fucoxanthin was used as a positive control compound. After treating the zebrafish oxidative aging model with different concentrations of I-8 for 22 hrs, changes in the reactive oxygen species (ROS) content, β-galactosidase activity, and the expression of three antioxidant and anti-aging related genes (Cu/Zn-sod, Mn-sod, and ampk) were respectively detected and statistically analyzed.
During the experiment, the modeling drug, positive compound, and I-8 were dispersed together in the culture water of zebrafish. […] Cell ROX™ Deep Red fluorescent probes and β-galactosidase staining kits were used to specifically label ROS and β-galactosidase in the fish, respectively, and the staining intensity was quantified using Image-Pro Plus software. After extracting RNA from the whole fish, the expression changes of three genes (Cu/Zn-sod, Mn-sod, and ampk) in the fish were detected at the mRNA level using Quantitative Real-time PCR (RT-qPCR). The data were statistically analyzed using GraphPad software.

The test system of assay [2] is wild-type AB strain zebrafish. The assay can be described thus: Zebrafish model, relieving anti-inflammatory efficacy (copper sulfate-induced, inflammatory cells at the neurothalamus). In kind it is in vivo. The following applies: zebrafish 3 dpf, 40 µM copper sulfate model; effective concentrations 7.4, 22.2, and 66.6 µg/mL. The method, then:
Experimental animal: Healthy wild-type AB strain zebrafish at 3 dpf (days post fertilization)
Evaluation of the relieving stinging efficacy: Healthy AB strain zebrafish were taken and randomly divided into four groups: blank control, modeling group, positive control, and sample group. […] After continuous treatment for a certain period, the zebrafish's behavioral trajectories were recorded using a behavior analyzer, and the changes in total movement distance and speed were statistically analyzed, the results are shown in FIGS. 2-4. […]
Evaluation of the relieving anti-inflammatory efficacy: As described above, the modeling drug was 40 µM copper sulfate, the positive control drug was 200 µM asiaticoside, and the concentrations of I-8 were 66.6, 22.2, and 7.4 µg/mL respectively. After treating zebrafish as described above, inflammatory cells in their bodies were stained, the number of inflammatory cells at the neurothalamus was counted, and statistical analysis was performed.

Assay [3] has as its system HaCaT cells. Put plainly: ROS content / ROS scavenging rate in HaCaT after UVB radiation (DCFH-DA). In kind it is cell-based, human. The following applies: for ROS scavenging rate: HaCaT cells after UVB radiation. The text has this:
Oxidative reactions such as respiration and metabolism in organisms generate reactive free radicals. Under normal bodily conditions, free radicals have a stable scavenging system, so that the free radical content of the body is kept at a relatively low concentration. Oxidative stress (OS) refers to an imbalance between oxidation and antioxidation in the body due to endogenous and/or exogenous stimuli, resulting in excessive free radical production. Excessive free radicals produce a series of negative effects in the body, including oxidative damage to biomolecules and further causing cell death and tissue damage, etc. In organisms, almost all ROS, except for trace amounts utilized by the body, should be promptly scavenged. Medium Wave Erythema Effect Ultraviolet (UVB) (280-319 nm) radiation damage is the most important factor leading to photoaging of the skin, primarily damaging keratinocytes (HaCaT), specifically manifested as the accumulation of photoproducts, increased ROS, and exacerbated oxidative damage, etc. Over long periods of evolution, organisms have developed a complete antioxidant system, maintaining a dynamic balance between the production and elimination of free radicals. This is an adaptive mechanism of organisms, and the main members include antioxidant enzymes, antioxidants, and proteins that separate transition metals, all of which can specifically limit oxidative damage to the body. Therefore, the antioxidant efficacy of a test compound can be evaluated by detecting the ROS scavenging rate in keratinocytes after UVB radiation.
• 1) Cell inoculation: HaCaT cells were inoculated into a 96-well plate at 2 × 10^4/well, cultured in an incubator (37 °C, 5% CO2) for 12 hrs, and a control group (120 mJ/cm^2 + vehicle control), a low concentration group (120 mJ/cm^2 + low concentration compound), a medium concentration group (120 mJ/cm^2 + medium concentration compound), and a high concentration group (120 mJ/cm^2 + high concentration compound) were respectively provided. • 2) UVB modeling: The HaCaT cells were washed 3 times with D'Hanks before UVB radiation, 50 µL of D'Hanks was added into the wells, to make the cells to be immersed, and the control group was coated with tinfoil and placed in the dark. For the test groups, UVB modeling was performed on the group requiring radiation, respectively. • 3) Administration: DMEM medium containing different concentrations of compound were added to each test group for continued culture for 24 hrs. • 4) Transferring the ROS fluorescent probe: DCFH-DA was Diluted to a final concentration of 10 µmol/L using PBS at a dilution ratio of 1:1000. The culture medium in all wells except the bare cell wells was discarded. After washing three times with PBS, 200 µL of DCFH-DA working solution was added to each well, then incubated in a CO2 incubator for 30 min, and after incubation, the cells in each well were washed with PBS for 3 times. • 5) Fluorescence analysis. The 96-well plate to be tested was placed on the detection stage of the fluorescence microplate reader, with the […] set to 525 nm, the excitation light wavelength set to 488 nm, and the reading was analyzed.
ROS scavenging rate (%) = (S(Modelcontrolgroup)−S(Samplegroup))/(S(Modelcontrolgroup)) × 100% [formula] wherein S is fluorescence intensity.

Consider `O=S1(=O)Oc2cc(O)ccc2-c2ccc(O)cc21` [Compound I-8], for which the “expression of Mn-sod gene” value in assay [1] is “upregulated”. Besides, the relieving anti-inflammatory efficacy entry in assay [2] is given as “certain relieving anti-inflammatory efficacy”. Also, in assay [3] (HaCaT, UVB 120 mJ/cm^2, 24 hrs, low, medium, high concentration), the “ROS content in HaCaT after UVB radiation” value is reported as “scavenging ROS in a dose-dependent manner”. Besides, the ROS scavenging rate in assay [3] (content 0.00015625%) is given as 12%; in assay [3] (content 0.000625%) it was 22%; in assay [3] (content 0.0025%), 26%.
